Bridge positions count the residues as written; N and C are the ends. Square brackets hold non-standard residues; d marks the D form. Peptide text beside a SMILES is read from it. Abu = CC[C@H](N)C(=O)O
What was measured:
D. immitis iPGM = D. immitis iPGM (Dirofilaria immitis, UniProt F4ZE01); assay: biochemical
B. malayi iPGM = target: T1, B. malayi iPGM (Brugia malayi, UniProt Q4VWF8); assay: biochemical; assay type: binding; details: for Kd: Supplementary Table 5, SPR, B.m. iPGM, unit inferred
T1 sequence (Q4VWF8 1-515): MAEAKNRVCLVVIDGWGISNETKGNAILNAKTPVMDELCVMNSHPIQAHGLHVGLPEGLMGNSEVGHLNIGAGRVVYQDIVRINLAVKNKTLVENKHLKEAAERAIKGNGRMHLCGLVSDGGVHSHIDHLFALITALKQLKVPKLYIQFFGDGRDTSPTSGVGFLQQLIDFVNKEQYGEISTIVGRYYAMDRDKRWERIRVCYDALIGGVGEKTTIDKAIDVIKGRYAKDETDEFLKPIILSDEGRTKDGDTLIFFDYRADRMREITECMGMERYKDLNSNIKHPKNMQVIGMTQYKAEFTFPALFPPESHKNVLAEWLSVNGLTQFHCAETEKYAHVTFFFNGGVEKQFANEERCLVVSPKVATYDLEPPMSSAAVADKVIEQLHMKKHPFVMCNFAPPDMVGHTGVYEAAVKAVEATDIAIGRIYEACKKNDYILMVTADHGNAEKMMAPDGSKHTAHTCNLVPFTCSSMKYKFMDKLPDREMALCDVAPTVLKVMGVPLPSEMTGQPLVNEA

C. elegans iPGM = C. elegans iPGM (Caenorhabditis elegans, UniProt G5EFZ1); assay: SPR binding kinetics and saturation binding, biotinylated iPGM on Biotin CAPture chip (Biacore S200)
E. coli iPGM [1] = target: T2, E. coli iPGM (Escherichia coli, UniProt P37689); assay: as above; details: Supplementary Table 5, SPR, E.c. iPGM; for koff / kon: LoQ = limit of quantitation; for Kd: unit inferred
E. coli iPGM [2] = target: T2, E. coli iPGM; assay: biochemical; details: […]

`CC(C)C[C@H](NC(=O)[C@H](Cc1ccccc1)NC(=O)[C@@H]1CSCC(=O)N[C@H](Cc2ccc(O)cc2)C(=O)N[C@@H](CC(=O)O)C(=O)N[C@@H](Cc2ccc(O)cc2)C(=O)N2CCC[C@H]2C(=O)NCC(=O)N[C@@H](CC(=O)O)C(=O)N[C@@H](Cc2ccc(O)cc2)C(=O)N1)C(=O)N[C@@H](Cc1ccc(O)cc1)C(N)=O` [Ce-2d Y9F] was tested, and the IC50 (D. immitis iPGM; Di iPGM Ave IC50 (M)) was 1.43e-05 M.

`CC[C@@H]1NC(=O)[C@@H](Cc2ccc(O)cc2)NC(=O)CSC[C@@H](C(=O)N[C@@H](Cc2ccc(O)cc2)C(=O)N[C@@H](CC(C)C)C(=O)N[C@@H](Cc2ccc(O)cc2)C(=O)NCC(=O)N[C@H](C(=O)N[C@@H](CS)C(N)=O)[C@@H](C)O)NC(=O)[C@H](Cc2ccc(O)cc2)NC(=O)[C@H](CC(=O)O)NC(=O)CNC(=O)[C@@H]2CCCN2C(=O)[C@H](Cc2ccc(O)cc2)NC1=O` [Ce-2 D2Abu] ({CH2CO}-[dY][Abu]YPGDYCYLYGTC-NH2; thioether N-8) was tested, and the koff (B. malayi iPGM) was 0.000125 s⁻¹, the kon (B. malayi iPGM) was 561000 M⁻¹ s⁻¹ and the Kd (B. malayi iPGM) was 0.223 nM. The IC50 (D. immitis iPGM; Di iPGM Ave IC50 (M)) was 1.52e-09 M, the IC50 (D. immitis iPGM; IC50 (M)) was 1.57e-09 M and the Kd (C. elegans iPGM) was 0.0157 nM. It also gave a koff (C. elegans iPGM) of 4.55e-05 s⁻¹, a kon (C. elegans iPGM) of 3.04e+06 M⁻¹ s⁻¹ and a koff (E. coli iPGM [1]) of 0.00202 s⁻¹. The kon (E. coli iPGM [1]) was 270000 M⁻¹ s⁻¹ and the Kd (E. coli iPGM [1]) was 25.4 nM.

In the case of `CC(C)C[C@H](NC(=O)[C@H](Cc1ccc(O)cc1)NC(=O)[C@@H]1CSCC(=O)N[C@H](Cc2ccc(O)cc2)C(=O)N[C@@H](CC(=O)O)C(=O)N[C@@H](Cc2ccc(O)cc2)C(=O)N2CCC[C@H]2C(=O)N[C@@H](CC(C)C)C(=O)N[C@@H](CC(=O)O)C(=O)N[C@@H](Cc2ccc(O)cc2)C(=O)N1)C(=O)N[C@@H](Cc1ccc(O)cc1)C(N)=O` [Ce-2d G5L], the IC50 (E. coli iPGM [2]) is reported as 13200 nM.

`CC(C)C[C@H](NC(=O)[C@H](Cc1ccc(O)cc1)NC(=O)[C@@H]1CSCC(=O)N[C@H](Cc2ccc(O)cc2)C(=O)N[C@@H](CCC(=O)O)C(=O)N[C@@H](Cc2ccc(O)cc2)C(=O)N2CCC[C@H]2C(=O)NCC(=O)N[C@@H](CC(=O)O)C(=O)N[C@@H](Cc2ccc(O)cc2)C(=O)N1)C(=O)N[C@@H](Cc1ccc(O)cc1)C(N)=O` [Ce-2d D2E] was tested, and the IC50 (D. immitis iPGM; Di iPGM Ave IC50 (M)) was 9.99e-08 M.

`CC(C)C[C@H](NC(=O)[C@H](Cc1ccc(O)cc1)NC(=O)[C@@H]1CSCC(=O)N[C@H](Cc2ccc(O)cc2)C(=O)N[C@@H](CC(=O)O)C(=O)N[C@@H](Cc2ccc(O)cc2)C(=O)N2CCC[C@H]2C(=O)NCC(=O)N[C@@H](CC(=O)O)C(=O)N[C@@H](Cc2ccc(O)cc2)C(=O)N1)C(=O)N[C@@H](Cc1ccc(O)cc1)C(=O)NCC(=O)NCC(=O)NO` [Ce-2 T13G, C14NHOH] gave a koff (B. malayi iPGM) of 0.0284 s⁻¹, a kon (B. malayi iPGM) of 110000 M⁻¹ s⁻¹ and a Kd (B. malayi iPGM) of 245 nM. It also gave an IC50 (D. immitis iPGM; Di iPGM Ave IC50 (M)) of 1.84e-07 M, a Kd (C. elegans iPGM) of 16.3 nM and a koff (C. elegans iPGM) of 0.00251 s⁻¹. The kon (C. elegans iPGM) was 197000 M⁻¹ s⁻¹, the koff (E. coli iPGM [1]) was “> LOQ” and the kon (E. coli iPGM [1]) was “> LOQ”.

Molecule `CC(C)C[C@H](NC(=O)[C@H](Cc1ccc(O)cc1)NC(=O)[C@@H]1CSCC(=O)N[C@H](Cc2ccc(O)cc2)C(=O)N[C@@H](CC(=O)O)C(=O)N[C@@H](Cc2ccc(O)cc2)C(=O)N2CCC[C@H]2C(=O)NCC(=O)N[C@@H](CC(=O)O)C(=O)N[C@@H](CO)C(=O)N1)C(=O)N[C@@H](Cc1ccc(O)cc1)C(N)=O` [Ce-2d Y7S] has an IC50 (D. immitis iPGM; Di iPGM Ave IC50 (M)) of 1.78e-07 M.

For `CC(C)C[C@H](NC(=O)[C@H](Cc1ccc(O)cc1)NC(=O)[C@@H]1CSCC(=O)N[C@H](Cc2ccc(O)cc2)C(=O)N[C@@H](CC(=O)O)C(=O)N[C@@H](Cc2ccc(O)cc2)C(=O)N2CCC[C@H]2C(=O)NCC(=O)N[C@@H](CC(=O)O)C(=O)N[C@@H](Cc2ccc(O)cc2)C(=O)N1)C(=O)N[C@@H](Cc1ccc(O)cc1)C(=O)NCC(=O)N[C@@H](Cc1c[nH]cn1)C(=O)N[C@@H](CS)C(N)=O` [Ce-2 T13H], the koff (B. malayi iPGM) was 0.000587 s⁻¹, the kon (B. malayi iPGM) was 1.06e+06 M⁻¹ s⁻¹ and the Kd (B. malayi iPGM) was 0.555 nM. The IC50 (D. immitis iPGM; IC50 (M)) was 3.77e-09 M, the Kd (C. elegans iPGM) was 0.0264 nM and the koff (C. elegans iPGM) was 1.98e-05 s⁻¹. For the same molecule, the kon (C. elegans iPGM) was 752000 M⁻¹ s⁻¹, the koff (E. coli iPGM [1]) was 0.0144 s⁻¹ and the kon (E. coli iPGM [1]) was 103000 M⁻¹ s⁻¹. It also gave a Kd (E. coli iPGM [1]) of 62.7 nM.

In the case of `CC(C)C[C@H](NC(=O)[C@H](Cc1ccc(O)cc1)NC(=O)[C@@H]1CSCC(=O)N[C@H](Cc2ccc(O)cc2)C(=O)N[C@@H](CC(=O)O)C(=O)N[C@@H](Cc2ccc(F)cc2)C(=O)N2CCC[C@H]2C(=O)NCC(=O)N[C@@H](CC(=O)O)C(=O)N[C@@H](Cc2ccccc2)C(=O)N1)C(=O)N[C@@H](Cc1ccc(O)cc1)C(=O)NCC(=O)N[C@H](C(=O)N[C@@H](CS)C(N)=O)[C@@H](C)O`, the IC50 (D. immitis iPGM; Di iPGM Ave IC50 (M)) is reported as 1.41e-09 M.

Source: PMC8113725, “Structure–activity relationship of ipglycermide binding to phosphoglycerate mutases” (The Journal of Biological Chemistry, 2021)
